Drawing on US7351703B2, “Sulfonylamino carboxylic acid N-arylamides as guanylate cyclase activators” (Sanofi-Aventis Deutschland GmbH, priority 1999, dated 2008), this text covers n-fold stimulation and melting point for 24 compounds.

In data set [1] the target is T1, soluble guanylate cyclase (sGC) (Bos taurus, UniProt P16068).
T1 construct: The sGC employed had been isolated from bovine lung; from tissue; host or cells: bovine lung
T1 sequence (P16068 1-619): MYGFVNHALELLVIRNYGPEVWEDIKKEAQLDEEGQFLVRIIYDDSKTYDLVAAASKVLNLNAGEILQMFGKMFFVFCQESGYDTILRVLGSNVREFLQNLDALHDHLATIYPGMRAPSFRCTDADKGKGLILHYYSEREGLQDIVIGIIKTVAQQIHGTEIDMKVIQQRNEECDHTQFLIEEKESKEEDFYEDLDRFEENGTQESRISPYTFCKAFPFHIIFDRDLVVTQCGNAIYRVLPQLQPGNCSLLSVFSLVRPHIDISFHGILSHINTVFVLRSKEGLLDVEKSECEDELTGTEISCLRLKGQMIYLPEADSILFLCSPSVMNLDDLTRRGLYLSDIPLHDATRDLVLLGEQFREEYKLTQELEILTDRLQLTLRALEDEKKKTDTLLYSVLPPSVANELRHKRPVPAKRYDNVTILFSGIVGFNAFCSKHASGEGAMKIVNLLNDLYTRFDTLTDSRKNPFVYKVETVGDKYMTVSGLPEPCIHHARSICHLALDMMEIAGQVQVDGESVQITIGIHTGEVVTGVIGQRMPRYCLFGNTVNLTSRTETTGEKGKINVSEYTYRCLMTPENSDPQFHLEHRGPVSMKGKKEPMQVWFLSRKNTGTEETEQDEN
T1 sequence (P19687 1-691 partner): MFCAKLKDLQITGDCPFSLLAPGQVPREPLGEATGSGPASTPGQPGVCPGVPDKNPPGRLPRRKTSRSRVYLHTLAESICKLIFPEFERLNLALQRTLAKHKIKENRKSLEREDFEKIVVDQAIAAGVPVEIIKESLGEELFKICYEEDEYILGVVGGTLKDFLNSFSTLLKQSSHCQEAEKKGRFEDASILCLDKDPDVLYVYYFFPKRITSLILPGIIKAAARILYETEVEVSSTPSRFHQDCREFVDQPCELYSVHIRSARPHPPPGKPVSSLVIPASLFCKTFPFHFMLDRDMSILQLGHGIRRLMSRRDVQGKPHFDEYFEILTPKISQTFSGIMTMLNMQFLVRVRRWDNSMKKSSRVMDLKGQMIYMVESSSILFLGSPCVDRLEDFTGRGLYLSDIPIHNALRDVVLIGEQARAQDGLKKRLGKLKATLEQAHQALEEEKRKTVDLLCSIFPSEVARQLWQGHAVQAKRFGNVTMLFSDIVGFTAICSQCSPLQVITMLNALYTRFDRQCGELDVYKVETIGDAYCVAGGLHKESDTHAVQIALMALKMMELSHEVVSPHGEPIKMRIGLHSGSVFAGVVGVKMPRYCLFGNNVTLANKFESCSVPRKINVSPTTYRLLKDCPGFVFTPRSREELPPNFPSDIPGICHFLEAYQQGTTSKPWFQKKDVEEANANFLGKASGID
Nature of the data set: Activation of soluble guanylate cyclase (cGMP enzyme immunoassay). In kind it is biochemical. The note with it: sGC isolated from bovine lung, stimulation of basal enzyme activity vs solvent control. As for the experimental part: The activation of soluble guanylate cyclase (sGC), which catalyzes the conversion of guanosine triphosphate (GTP) to cyclic guanosine monophosphate (cGMP) and pyrophosphate, by the compounds according to the invention was quantified with the aid of an enzyme immunoassay (EIA) from Amersham. For this, the test substances were first incubated with sGC in microtiter plates and then the quantity of the resulting cGMP was determined.
The sGC employed had been isolated from bovine lung (see Methods in Enzymology, Volume 195, p. 377). The test solutions (100 μl per well) contained 50 mM triethanolamine (TEA) buffer (pH 7.5), 3 mM MgCl2, 3 mM reduced glutathione (GSH), 0.1 mM GTP, 1 mM 3-isobutyl-1-methylxanthine (IBMX), suitably diluted enzyme solution and the test substance or, in the control experiments, solvent. The test substances were dissolved in dimethyl sulfoxide (DMSO) and the solution was diluted with DMSO/water such that the final concentration c of test substance in the test batch had the value indicated below. The DMSO concentration in the test batch was 5% (v/v). The reaction was started by addition of the sGC. The reaction mix was incubated at 37° C. for 15 to 20 minutes and then stopped by ice-cooling and addition of the stop reagent (50 mM EDTA, pH 8.0). An aliquot of 50 μl was taken and employed for the determination of the cGMP content using the acetylation protocol of the Amersham cGMP EIA kit. The absorption of the samples was measured at 450 nm (reference wavelength 620 nm) in a microtiter plate reading apparatus. The cGMP concentration was determined by means of a calibration curve, which was obtained under the same experimental conditions. The activation of the sGC by a test substance is indicated as n-fold stimulation of the basal enzyme activity which was found in the control experiments (with solvent instead of test substance) (calculated according to the formula n-fold stimulation=[cGMP]test substance/[cGMP]control).

With “5-Chloro-2-(4-chlorophenylsulfonylamino)-N-(quinolinsyl)benzamide [Example 111]”, the n-fold stimulation in data set [1] (concentration c 50 μM) worked out at 6.1 n-fold.

With `O=C(Nc1cccc(C(F)(F)F)c1)c1ccccc1NS(=O)(=O)c1ccc(Cl)cc1` [Example 1, 2-(4-Chlorophenylsulfonylamino)-N-(3-trifluoromethylphenyl)benzamide], the melting point – broadly, the temperature, or range, at which the solid turns liquid – worked out at 169 °C. In data set [1] (concentration c 100 μM), this compound showed a n-fold stimulation of 3.6 n-fold.

`O=C(Nc1cccc(C(F)(F)F)c1)c1cc(Br)ccc1NS(=O)(=O)c1ccc(Cl)cc1` [Example 2, 5-Bromo-2-(4-chlorophenylsulfonylamino)-N-(3-trifluoromethylphenyl)benzamide] yielded a melting point of 220 °C. Also, the n-fold stimulation in data set [1] (concentration c 100 μM) amounted to 9.2 n-fold.

As to `O=C(Nc1ccc2ccccc2c1)c1ccccc1NS(=O)(=O)c1ccc(Cl)cc1` [Example 3, 2-(4-Chlorophenylsulfonylamino)-N-(2-naphthyl)benzamide], the melting point came out at 189 °C. The compound further came in with a n-fold stimulation in data set [1] (concentration c 100 μM) of 2 n-fold.

With `O=C(Nc1cccc(C(F)(F)F)c1)c1cc(Cl)ccc1NS(=O)(=O)c1ccc(Cl)cc1` [Example 4, 5-Chloro-2-(4-chlorophenylsulfonylamino)-N-(3-trifluoromethylphenyl)benzamide], the melting point amounted to 216 °C. In addition, the n-fold stimulation in data set [1] (concentration c 25 μM) was 5.5 n-fold.

`O=C(Nc1ccc(Oc2ccccc2)cc1)c1cc(Cl)ccc1NS(=O)(=O)c1ccc(Cl)cc1` [Example 5, 5-Chloro-2-(4-chlorophenylsulfonylamino)-N-(4-phenoxyphenyl)benzamide] yielded a melting point of 205 °C. Also, the n-fold stimulation in data set [1] (concentration c 10 μM) is recorded as 9.3 n-fold.

For the compound `O=C(Nc1ccc(Oc2ccc(Cl)cc2)cc1)c1cc(Cl)ccc1NS(=O)(=O)c1ccc(Cl)cc1` [Example 6, 5-Chloro-2-(4-chlorophenylsulfonylamino)-N-(4-(4-chlorophenoxy)phenyl)benzamide], the melting point turned out to be 207 °C. For the same compound, in data set [1] (concentration c 100 μM), the n-fold stimulation is recorded as 4.2 n-fold.

For `O=C(Nc1ccc(Cl)c(Cl)c1)c1cc(Cl)ccc1NS(=O)(=O)c1ccc(Cl)cc1` [Example 8, 5-Chloro-2-(4-chlorophenylsulfonylamino)-N-(3,4-dichlorophenyl)benzamide], in data set [1] (concentration c 10 μM), the n-fold stimulation is on record as 5.3 n-fold.

In the case of `COc1ccc(S(=O)(=O)Nc2ccc(Cl)cc2C(=O)Nc2ccc(F)cc2)cc1Cl` [Example 17], the n-fold stimulation in data set [1] (concentration c 100 μM) is 2 n-fold.

The compound `O=C(Nc1ccc(Oc2ccc(Cl)c3ccccc23)c(Cl)c1)c1cc(Cl)ccc1NS(=O)(=O)c1ccc(Cl)cc1` [Example 19, 5-Chloro-2-(4-chlorophenylsulfonylamino)-N-(3-chloro-4-(4-chloronaphthalene-1-yloxy)phenyl)benzamide] showed a n-fold stimulation in data set [1] (concentration c 100 μM) of 26.3 n-fold.

Turning to `O=C(Nc1ccc(Nc2ccccc2)cc1)c1cc(Cl)ccc1NS(=O)(=O)c1ccc(Cl)cc1` [Example 22, 5-Chloro-2-(4-chlorophenylsulfonylamino)-N-(4-(phenylamino)phenyl)benzamide], the melting point was found to be 192.5 °C.

The compound `O=C(Nc1ccc(N2CCCC2=O)cc1)c1cc(Cl)ccc1NS(=O)(=O)c1ccccc1` [Example 25] had a n-fold stimulation in data set [1] (concentration c 50 μM) of 2.4 n-fold.

`Cc1cncc(NC(=O)c2cc(Cl)ccc2NS(=O)(=O)c2ccc(Cl)cc2)n1` [Example 26, 5-Chloro-2-(4-chlorophenylsulfonylamino)-N-(5-methylpyrazin-3-yl)benzamide] showed a melting point of 248 °C.

Compound `O=C(Nc1cc(-c2cccs2)n[nH]1)c1cc(Cl)ccc1NS(=O)(=O)c1ccc(Cl)cc1` [Example 27, 5-Chloro-2-(4-chlorophenylsulfonylamino)-N-(3-(2-thienyl)pyrazol-5-yl)benzamide] came in with a melting point of 117 °C.

Compound `O=C(Nc1cc(C(F)(F)F)cc(C(F)(F)F)c1)c1cc(Cl)ccc1NS(=O)(=O)c1ccc(Cl)cc1` [Example 28, 5-Chloro-2-(4-chlorophenylsulfonylamino)-N-(3,5-bis-trifluoromethylphenyl)benzamide] displayed a melting point of 182.5 °C.

`COc1ccc(C(F)(F)F)cc1NC(=O)c1cc(Cl)ccc1NS(=O)(=O)c1ccc(Cl)cc1` [Example 29, 5-Chloro-2-(4-chlorophenylsulfonylamino)-N-(2-methoxy-5-trifluoromethylphenyl)benzamide] had a melting point of 164.5 °C.

In the case of `O=C(Nc1ccccc1C(F)(F)F)c1cc(Cl)ccc1NS(=O)(=O)c1ccc(Cl)cc1` [Example 30, 5-Chloro-2-(4-chlorophenylsulfonylamino)-N-(2-trifluoromethylphenyl)benzamide], the melting point was found to be 182 °C.

The compound `COc1cccc(NC(=O)c2cc(Cl)ccc2NS(=O)(=O)c2ccc(Cl)cc2)c1` [Example 31, 5-Chloro-2-(4-chlorophenylsulfonylamino)-N-(3-methoxyphenyl)benzamide] registered a melting point of 163.5 °C.

Turning to `COc1cc(NC(=O)c2cc(Cl)ccc2NS(=O)(=O)c2ccc(Cl)cc2)cc(OC)c1` [Example 32, 5-Chloro-2-(4-chlorophenylsulfonylamino)-N-(3,5-dimethoxyphenyl)benzamide], the melting point amounted to 74.5 °C.

The compound `O=C(Nc1ccc(C(=O)N2CCOCC2)cc1)c1cc(Cl)ccc1NS(=O)(=O)c1ccc(Cl)cc1` [Example 33, 5-Chloro-2-(4-chlorophenylsulfonylamino)-N-(4-(morpholine-4-carbonyl)phenyl)benzamide] had a n-fold stimulation in data set [1] (concentration c 50 μM) of 3.8 n-fold.

In data set [1] (concentration c 50 μM), `CCN(CC)Cc1cc(NC(=O)c2cc(Cl)ccc2NS(=O)(=O)c2ccc(Cl)cc2)ccc1O` [Example 93, 5-Chloro-2-(4-chlorophenylsulfonylamino)-N-(3-diethylaminomethyl-4-hydroxyphenyl)benzamide] gave a n-fold stimulation of 1.5 n-fold.

In data set [1] (concentration c 12.5 μM), `N#CC(c1ccccc1)c1ccc(NC(=O)c2cc(Cl)ccc2NS(=O)(=O)c2ccc(Cl)cc2)cc1` (stereo not drawn) [Example 97, 5-Chloro-2-(4-chlorophenylsulfonylamino)-N-(4-(cyanophenylmethyl)phenyl)benzamide] displayed a n-fold stimulation of 4.9 n-fold.

Turning to `O=C(O)CNC(=O)c1ccc(NC(=O)c2cc(Cl)ccc2NS(=O)(=O)c2ccc(Cl)cc2)cc1` [Example 102, (4-(5-Chloro-2-(4-chlorophenylsulfonylamino)benzoylamino)benzoylamino)acetic acid], the n-fold stimulation in data set [1] (concentration c 50 μM) came out at 1.7 n-fold.

For the compound `O=C(O)Cc1cccc(NC(=O)c2cc(Cl)ccc2NS(=O)(=O)c2ccc(Cl)cc2)c1` [Example 108, (3-(5-Chloro-2-(4-chlorophenylsulfonylamino)benzoylamino)phenyl)acetic acid], the n-fold stimulation in data set [1] (concentration c 50 μM) amounted to 2.5 n-fold.
